Laboratory results: PubChem BioAssay (NCI)
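These data come from cells grown in 96-well plates and exposed to compound for 48 hours at five concentrations. TGI marks complete inhibition of growth.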

Experiments:
Experiment in all cases: NCI anticancer screen, dose series, 48 h
[1] = test system: 786-0 renal
[2] = test system: A498 renal
[3] = test system: A549 NSCLC
[4] = test system: ACHN renal
[5] = test system: BT-549 breast
[6] = test system: CAKI-1 renal
[7] = test system: CCRF-CEM leukemia
[8] = test system: COLO 205 colon
[9] = test system: DU-145 prostate
[10] = test system: EKVX NSCLC
[11] = test system: HCC-2998 colon
[12] = test system: HCT-116 colon
[13] = test system: HCT-15 colon
[14] = test system: HL-60(TB) leukemia
[15] = test system: HOP-62 NSCLC
[16] = test system: HOP-92 NSCLC
[17] = test system: HS 578T breast
[18] = test system: HT29 colon
[19] = test system: IGROV1 ovarian
[20] = test system: K-562 leukemia
[21] = test system: KM12 colon
[22] = test system: LOX IMVI melanoma
[23] = test system: M14 melanoma
[24] = test system: MALME-3M melanoma
[25] = test system: MCF7 breast
[26] = test system: MDA-MB-231 breast
[27] = test system: MDA-MB-435
[28] = test system: MDA-N
[29] = test system: MOLT-4 leukemia
[30] = test system: NCI-H226 lung
[31] = test system: NCI-H23 lung
[32] = test system: NCI-H460 lung
[33] = test system: NCI-H522 lung
[34] = test system: NCI/ADR-RES ovarian
[35] = test system: OVCAR-3 ovarian
[36] = test system: OVCAR-4 ovarian
[37] = test system: OVCAR-5 ovarian
[38] = test system: OVCAR-8 ovarian
[39] = test system: PC-3 prostate
[40] = test system: RPMI-8226 leukemia
[41] = test system: RXF 393 renal
[42] = test system: SF-268 CNS
[43] = test system: SF-295 CNS
[44] = test system: SF-539 CNS
[45] = test system: SK-MEL-2 melanoma
[46] = test system: SK-MEL-28 melanoma
[47] = test system: SK-MEL-5 melanoma
[48] = test system: SK-OV-3 ovarian
[49] = test system: SN12C renal
[50] = test system: SNB-19 CNS
[51] = test system: SR leukemia
[52] = test system: SW-620 colon
[53] = test system: T-47D breast
[54] = test system: TK-10 renal
[55] = test system: U251 CNS
[56] = test system: UACC-257 melanoma
[57] = test system: UACC-62 melanoma
[58] = test system: UO-31 renal
[59] = test system: SNB-75 CNS

With `Nc1nc2c(C(=O)NCc3cccs3)nnn2c2cccc(Cl)c12` the TGI [1] was > 100 µM, the TGI [2] was > 100 µM and the TGI [3] was > 100 µM. For the same molecule, the TGI [4] was > 100 µM, the TGI [5] was > 100 µM and the TGI [6] was > 100 µM. The TGI [7] was 55.6 µM, the TGI [8] was > 100 µM and the TGI [9] was > 100 µM. The TGI [10] was > 100 µM, the TGI [11] was > 100 µM and the TGI [12] was > 100 µM. For the same molecule, the TGI [13] was > 100 µM, the TGI [14] was > 100 µM and the TGI [15] was > 100 µM. The TGI [16] was > 100 µM, the TGI [17] was > 100 µM and the TGI [18] was > 100 µM. The TGI [19] was > 100 µM, the TGI [20] was > 100 µM and the TGI [21] was > 100 µM. The TGI [22] was > 100 µM, the TGI [23] was > 100 µM and the TGI [24] was > 100 µM. For the same molecule, the TGI [25] was > 100 µM, the TGI [26] was > 100 µM and the TGI [27] was > 100 µM. The TGI [28] was > 100 µM, the TGI [29] was > 100 µM and the TGI [30] was > 100 µM. The TGI [31] was > 100 µM, the TGI [32] was > 100 µM and the TGI [33] was > 100 µM. The TGI [34] was > 100 µM, the TGI [35] was > 100 µM and the TGI [36] was > 100 µM. For the same molecule, the TGI [37] was > 100 µM, the TGI [38] was > 100 µM and the TGI [39] was > 100 µM. For the same molecule, the TGI [40] was > 100 µM, the TGI [41] was > 100 µM and the TGI [42] was > 100 µM. The TGI [43] was > 100 µM, the TGI [44] was > 100 µM and the TGI [45] was > 100 µM. The TGI [46] was > 100 µM, the TGI [47] was > 100 µM and the TGI [48] was > 100 µM. The TGI [49] was > 100 µM, the TGI [50] was > 100 µM and the TGI [51] was > 100 µM. For the same molecule, the TGI [52] was > 100 µM, the TGI [53] was 50.7 µM and the TGI [54] was > 100 µM. For the same molecule, the TGI [55] was > 100 µM, the TGI [56] was > 100 µM and the TGI [57] was > 100 µM. For the same molecule, the TGI [58] was > 100 µM.

In the case of `O=C(c1ccc(Cl)cc1)N1CCN=C1c1cc2ccccc2c2ccccc12`, the TGI [1] was 30.4 µM, the TGI [2] was 28.9 µM and the TGI [3] was 31 µM. The TGI [4] was 31.2 µM, the TGI [5] was 33.6 µM and the TGI [6] was 35.7 µM. The TGI [7] was 81.1 µM, the TGI [8] was 29.5 µM and the TGI [9] was 38.4 µM. For the same molecule, the TGI [10] was 28 µM, the TGI [12] was 28.1 µM and the TGI [13] was 31.3 µM. For the same molecule, the TGI [14] was 49.9 µM, the TGI [15] was 33.3 µM and the TGI [16] was 26.3 µM. For the same molecule, the TGI [17] was 35.9 µM, the TGI [18] was 30 µM and the TGI [19] was 29.2 µM. It also gave a TGI [20] of 95.8 µM, a TGI [21] of 30.6 µM and a TGI [22] of 36.1 µM. The TGI [23] was > 100 µM, the TGI [24] was 32.5 µM and the TGI [25] was 34.2 µM. The TGI [26] was 29.9 µM, the TGI [27] was 31.9 µM and the TGI [28] was 31.9 µM. The TGI [29] was > 100 µM, the TGI [31] was 32.7 µM and the TGI [32] was 24.9 µM. It also gave a TGI [34] of 33.3 µM, a TGI [35] of 35.3 µM and a TGI [36] of 27.7 µM. The TGI [37] was 35.1 µM, the TGI [38] was 33.5 µM and the TGI [39] was 37.2 µM. For the same molecule, the TGI [40] was 55.8 µM, the TGI [41] was 30.6 µM and the TGI [42] was 31.9 µM. For the same molecule, the TGI [43] was 30.5 µM, the TGI [44] was 29.1 µM and the TGI [45] was 31.4 µM. For the same molecule, the TGI [46] was 29.7 µM, the TGI [47] was 27.9 µM and the TGI [48] was 29.6 µM. The TGI [49] was 30.6 µM, the TGI [50] was 30.5 µM and the TGI [59] was 25.7 µM. It also gave a TGI [51] of 59 µM, a TGI [52] of 32.2 µM and a TGI [53] of 54.4 µM. The TGI [54] was 29.2 µM, the TGI [55] was 30.5 µM and the TGI [56] was 31.8 µM. The TGI [57] was 27.7 µM and the TGI [58] was 31.5 µM.

For `CCCCCCCCOc1ccc(/C=C/C2=[N+](CCO)CCO2)cc1`, the TGI [1] was 13.7 µM, the TGI [2] was 11.7 µM and the TGI [3] was 10.7 µM. The TGI [4] was 13 µM, the TGI [5] was 14.5 µM and the TGI [6] was 19.7 µM. For the same molecule, the TGI [7] was 6.43 µM, the TGI [8] was 5.69 µM and the TGI [9] was 16.4 µM. The TGI [10] was 14.9 µM, the TGI [11] was 11.9 µM and the TGI [12] was 10.2 µM. The TGI [13] was 25 µM, the TGI [14] was 4.74 µM and the TGI [15] was 39.8 µM. The TGI [16] was 6.51 µM, the TGI [17] was 17.2 µM and the TGI [18] was 8.26 µM. The TGI [19] was 13.8 µM, the TGI [20] was 4.87 µM and the TGI [21] was 11 µM. For the same molecule, the TGI [23] was 20 µM, the TGI [24] was 12.2 µM and the TGI [25] was > 100 µM. It also gave a TGI [26] of 11.4 µM, a TGI [27] of 14.5 µM and a TGI [28] of 12.3 µM. It also gave a TGI [29] of 9.27 µM, a TGI [30] of 12.3 µM and a TGI [31] of 5.28 µM. For the same molecule, the TGI [32] was 10.5 µM, the TGI [33] was 6.25 µM and the TGI [34] was 29.4 µM. The TGI [35] was 28 µM, the TGI [36] was 14.2 µM and the TGI [37] was 26.4 µM. For the same molecule, the TGI [38] was 12.3 µM, the TGI [39] was 10.3 µM and the TGI [40] was 5.02 µM. It also gave a TGI [41] of 7.91 µM, a TGI [42] of 20.5 µM and a TGI [43] of 16.9 µM. It also gave a TGI [44] of 11 µM, a TGI [45] of 7.26 µM and a TGI [46] of 9.12 µM. It also gave a TGI [47] of 7.04 µM, a TGI [48] of 11.9 µM and a TGI [49] of 11.9 µM. It also gave a TGI [50] of 17.5 µM, a TGI [59] of 9.2 µM and a TGI [51] of 4.66 µM. The TGI [52] was 6.8 µM, the TGI [53] was 13.2 µM and the TGI [54] was 17.3 µM. It also gave a TGI [55] of 8.13 µM, a TGI [56] of 12.4 µM and a TGI [57] of 17.2 µM. For the same molecule, the TGI [58] was 25.1 µM.
